# Patent US8178506B2, “Oligomeric compounds and compositions for use in modulation of small non-coding RNAs” (Regulus Therapeutics Inc., priority 2003, dated 2012)
# In the oligonucleotide strings, read from the 5' end, every base follows the letter of its sugar. An asterisk marks phosphorothioate; unmarked linkages are phosphodiester. Other units and linkages are bracketed, terminal groups are in braces. A string of capitals states the bases alone. e = 2'-O-(2-methoxyethyl) (MOE); [5mC] = 5-methylcytosine; d = 2'-deoxy (DNA)
# Tests used:
# Glut4 = Glut4 mRNA expression in adipocytes (real-time PCR); type: cell-based, human; settings: differentiating adipocytes transfected with oligomeric compound
# adipocytes = test: Triglyceride accumulation assay in adipocytes; type: cell-based, human; settings: for TG (triglyceride accumulation): differentiating adipocytes transfected with oligomeric compound
# PPARγ = PPARγ mRNA expression in adipocytes (real-time PCR); type: cell-based, human; settings: differentiating adipocytes transfected with oligomeric compound
# aP2 = aP2 mRNA expression in adipocytes (real-time PCR); type: cell-based, human; settings: differentiating adipocytes transfected with oligomeric compound
# T47D cells = test: Caspase-3 activity assay (apoptosis) in T47D cells; settings: for Fold Increase over UTC (caspase activity) / apoptosis in T47D cells: 200 nM; for Fold Increase over UTC (caspase activity) / Fold Increase over UTC (caspase-3 activity, apoptosis): 48 hours; for Fold Increase over UTC (caspase activity): relative to untreated control; for Fold Increase over UTC (caspase-3 activity, apoptosis): 200 nM oligomeric compound; for apoptosis in T47D cells: caspase assay, conclusion from Tables 9-12
# HSL = HSL mRNA expression in adipocytes (real-time PCR); type: cell-based, human; settings: differentiating adipocytes transfected with oligomeric compound
# [1] = tested on: BJ, B16-F10, T47D, T47Dp53 and HeLa cells; test: Cell cycle assay (propidium iodide flow cytometry), cell line panel; type: cell-based; settings: for G1 (percentage of cells in phase of the cell cycle) / G2/M (percentage of cells in phase of the cell cycle) / S (percentage of cells in phase of the cell cycle) / SubG1 (percentage of cells in phase of the cell cycle) / aneuploid (percentage of cells): 150 nM oligomeric compound, 4.5 μg/ml LIPOFECTIN, after 72 hours, propidium iodide flow cytometry; for percentage of aneuploid cells: 150 nM, 72 hours (Table 29)
# HeLa cells = test: Cell cycle assay in HeLa cells; type: cell-based, human; settings: HeLa cells, 150 nM oligomeric compound; for % cells aneuploid / % cells in cell cycle phase G1 / % cells in cell cycle phase G2/M / % cells in cell cycle phase S / % cells in cell cycle phase subG1: 24 hours, relative to untreated control (UTC = 100); for % cells in cell cycle phase: G1 / % cells in cell cycle phase: G2/M / % cells in cell cycle phase: S / % cells in cell cycle phase: aneuploid / % cells in cell cycle phase: subG1: 48 hours after treatment, relative to untreated control (UTC=100)
# [2] = T47D cells, experiment of Table 10
# [3] = T47D cells, experiment of Table 12
substance,measurement,setting,value
328417 (antisense eT*eA*eA*eT*eT*dT*dT*dA*dG*dA*dA*dT*d[5mC]*dT*dT*eA*eA*e[5mC]*eG*e[5mC]) [compound 328417],GLUT4 mRNA,Glut4,68 percentage of untreated control (UTC)
same,TG (triglyceride accumulation),adipocytes,83 percentage of untreated control (UTC)
same,PPAR gamma mRNA,PPARγ,94 percentage of untreated control (UTC)
same,AP2 mRNA,aP2,87 percentage of untreated control (UTC)
same,Fold Increase over UTC (caspase activity),T47D cells; T47D cells,1.0
same,HSL mRNA,HSL,98 percentage of untreated control (UTC)
328400 (antisense eA*eG*eT*eT*e[5mC]*dA*dA*dA*dA*d[5mC]*dT*d[5mC]*dA*dA*dT*e[5mC]*e[5mC]*e[5mC]*eA*eA) [compound 328400],GLUT4 mRNA,Glut4,18 percentage of untreated control (UTC)
same,TG (triglyceride accumulation),adipocytes,60 percentage of untreated control (UTC)
same,PPAR gamma mRNA,PPARγ,67 percentage of untreated control (UTC)
same,AP2 mRNA,aP2,34 percentage of untreated control (UTC)
same,Fold Increase over UTC (caspase activity),T47D cells; T47D cells,1.3
same,HSL mRNA,HSL,40 percentage of untreated control (UTC)
328436 (antisense eG*eA*eA*eA*eA*dT*dT*dA*dT*dA*dT*dT*dG*dA*d[5mC]*eT*e[5mC]*eT*eG*eA) [compound 328436],G1 (percentage of cells in phase of the cell cycle),[1],59.2%
same,G2/M (percentage of cells in phase of the cell cycle),[1],13.9%
same,S (percentage of cells in phase of the cell cycle),[1],26.9%
same,SubG1 (percentage of cells in phase of the cell cycle),[1],3.5%
same,aneuploid (percentage of cells),[1],17.4%
same,"Fold Increase over UTC (caspase-3 activity, apoptosis)",T47D cells; [2],0.9 fold
ISIS 328394: oligomeric compound targeting mir-181a (eG*eT*eT*eT*eT*dT*dT*d[5mC]*dA*dA*dA*dT*d[5mC]*d[5mC]*d[5mC]*eA*eA*eA*e[5mC]*eT),percentage of aneuploid cells,[1],higher than average percentages of aneuploid cells
same,apoptosis in T47D cells,T47D cells,prevent or have a protective effect from apoptosis
328394 (eG*eT*eT*eT*eT*dT*dT*d[5mC]*dA*dA*dA*dT*d[5mC]*d[5mC]*d[5mC]*eA*eA*eA*e[5mC]*eT) [compound 328394],G1 (percentage of cells in phase of the cell cycle),[1],59.5%
same,G2/M (percentage of cells in phase of the cell cycle),[1],16%
same,S (percentage of cells in phase of the cell cycle),[1],24.5%
same,SubG1 (percentage of cells in phase of the cell cycle),[1],2.4%
same,aneuploid (percentage of cells),[1],18.3%
same,"Fold Increase over UTC (caspase-3 activity, apoptosis)",T47D cells; [3],0.8 fold
328647 (eG*eG*eA*eG*eT*dA*dG*dA*dT*dG*dA*dT*dG*dG*dT*eT*eA*eG*e[5mC]*e[5mC]; antisense) [compound 328647],% cells aneuploid,HeLa cells,140%
same,% cells in cell cycle phase G1,HeLa cells,101%
same,% cells in cell cycle phase G2/M,HeLa cells,119%
same,% cells in cell cycle phase S,HeLa cells,92%
same,% cells in cell cycle phase subG1,HeLa cells,140%
same,% cells in cell cycle phase: G1,HeLa cells,69%
same,% cells in cell cycle phase: G2/M,HeLa cells,118%
same,% cells in cell cycle phase: S,HeLa cells,153%
same,% cells in cell cycle phase: aneuploid,HeLa cells,136%
same,% cells in cell cycle phase: subG1,HeLa cells,589%
same,Fold Increase over UTC (caspase activity),T47D cells; T47D cells,0.9
328374 (eA*eG*e[5mC]*eT*eT*dT*dA*dG*d[5mC]*dT*dG*dG*dG*dT*d[5mC]*eA*eG*eG*eA*e[5mC]; antisense) [compound 328374],% cells aneuploid,HeLa cells,97%
same,% cells in cell cycle phase G1,HeLa cells,54%
same,% cells in cell cycle phase G2/M,HeLa cells,162%
same,% cells in cell cycle phase S,HeLa cells,115%
same,% cells in cell cycle phase subG1,HeLa cells,198%
same,% cells in cell cycle phase: G1,HeLa cells,65%
same,% cells in cell cycle phase: G2/M,HeLa cells,143%
same,% cells in cell cycle phase: S,HeLa cells,157%
same,% cells in cell cycle phase: aneuploid,HeLa cells,71%
same,% cells in cell cycle phase: subG1,HeLa cells,787%
same,"Fold Increase over UTC (caspase-3 activity, apoptosis)","T47D cells; T47D cells, experiment of Table 11",1.1 fold
328434 (antisense e[5mC]*eG*e[5mC]*eA*eT*d[5mC]*dT*dT*dG*dA*d[5mC]*dT*dG*dT*dA*eG*e[5mC]*eA*eT*eG) [compound 328434],GLUT4 mRNA,Glut4,83 percentage of untreated control (UTC)
same,TG (triglyceride accumulation),adipocytes,91 percentage of untreated control (UTC)
same,PPAR gamma mRNA,PPARγ,79 percentage of untreated control (UTC)
same,AP2 mRNA,aP2,85 percentage of untreated control (UTC)
same,"Fold Increase over UTC (caspase-3 activity, apoptosis)",T47D cells; [3],0.8 fold
same,HSL mRNA,HSL,96 percentage of untreated control (UTC)
"GCTGACCTTTTTGCTTCTCA (sugars from the 5' end e5 d10 e5, all phosphorothioate, methylation of C not given here) [ISIS 138648]",triglyceride accumulation,"adipocytes; preadipocytes, 250 nM, day nine",decreased triglyceride production
same,increase in caspase activity,T47D cells; T47D cells,41%
ISIS 328396: oligomeric compound targeting mir-205 (e[5mC]*eT*eG*eG*eT*dT*dG*dG*dG*dT*dA*dT*dG*dA*dG*eA*e[5mC]*eA*eG*eA),percentage of aneuploid cells,[1],higher than average percentages of aneuploid cells
same,apoptosis in T47D cells,T47D cells,prevent or have a protective effect from apoptosis
328651 (eG*eG*eT*eA*eA*dG*dA*dG*dG*dA*dT*dG*d[5mC]*dG*d[5mC]*eT*eG*e[5mC]*eT*e[5mC]; antisense) [compound 328651],GLUT4 mRNA,Glut4,78 percentage of untreated control (UTC)
same,TG (triglyceride accumulation),adipocytes,93 percentage of untreated control (UTC)
same,PPAR gamma mRNA,PPARγ,106 percentage of untreated control (UTC)
same,AP2 mRNA,aP2,84 percentage of untreated control (UTC)
same,"Fold Increase over UTC (caspase-3 activity, apoptosis)",T47D cells; [2],0.9 fold
same,HSL mRNA,HSL,109 percentage of untreated control (UTC)
328697 (eG*e[5mC]*eT*eT*eG*dT*d[5mC]*d[5mC]*dA*d[5mC]*dA*d[5mC]*dA*dG*dT*eT*e[5mC]*eA*eA*e[5mC]; antisense) [compound 328697],G1 (percentage of cells in phase of the cell cycle),[1],57.6%
same,G2/M (percentage of cells in phase of the cell cycle),[1],16%
same,S (percentage of cells in phase of the cell cycle),[1],26.4%
same,SubG1 (percentage of cells in phase of the cell cycle),[1],2.4%
same,aneuploid (percentage of cells),[1],13.5%
same,"Fold Increase over UTC (caspase-3 activity, apoptosis)",T47D cells; [3],1.0 fold
328421 (antisense eG*e[5mC]*eT*eT*eA*dG*d[5mC]*dT*dG*dT*dG*dT*d[5mC]*dT*dT*eA*e[5mC]*eA*eG*e[5mC]) [compound 328421],% cells aneuploid,HeLa cells,70%
same,% cells in cell cycle phase G1,HeLa cells,47%
same,% cells in cell cycle phase G2/M,HeLa cells,200%
same,% cells in cell cycle phase S,HeLa cells,105%
same,% cells in cell cycle phase subG1,HeLa cells,288%
same,% cells in cell cycle phase: G1,HeLa cells,30%
same,% cells in cell cycle phase: G2/M,HeLa cells,198%
same,% cells in cell cycle phase: S,HeLa cells,202%
same,% cells in cell cycle phase: aneuploid,HeLa cells,64%
same,% cells in cell cycle phase: subG1,HeLa cells,1103%
same,Fold Increase over UTC (caspase activity),T47D cells; T47D cells,1.2
